Test results reported in patent publication US20230321287A1, “RADIOLABELLED GRPR-ANTAGONIST FOR USE AS THERAGNOSTIC” (NOVARTIS AG, priority 2019, published 2023).

Assays:
clinical = details: human, tumor lesions; for SUV at 2.5 h / SUV at 1.5 h: non-dosimetry group; for SUV at 2.5 h: breast tumors, 2 h 30 minutes; for SUV at 1.5 h: prostatic tumors, 1 h 30 minutes
From the text: (§1) The primary objective was to characterize preliminary targeting properties of [68Ga] NeoB in patients with malignancies known to overexpress GRPR. The primary efficacy endpoints were: • Number and location of tumor lesions detected by [68Ga]-NeoBOMB1 overall and for each tumor type • Calculation of the ratio tumor/background standard uptake value (SUV) and %injected dose per gram of tissue (ID/g) and calculation of absorbed dose (mGy/MBq) in tumor overall and for each tumor type.
(§2) The dosimetry group comprised only patients with breast cancer (N=2).

GRPR [1] = biological target: T1, GRPR (Homo sapiens, UniProt P30550); assay: clinical; details: dosimetry group, breast cancer N=2
From the text: as §1, §2
Target sequence in this assay (P30550 whole entry): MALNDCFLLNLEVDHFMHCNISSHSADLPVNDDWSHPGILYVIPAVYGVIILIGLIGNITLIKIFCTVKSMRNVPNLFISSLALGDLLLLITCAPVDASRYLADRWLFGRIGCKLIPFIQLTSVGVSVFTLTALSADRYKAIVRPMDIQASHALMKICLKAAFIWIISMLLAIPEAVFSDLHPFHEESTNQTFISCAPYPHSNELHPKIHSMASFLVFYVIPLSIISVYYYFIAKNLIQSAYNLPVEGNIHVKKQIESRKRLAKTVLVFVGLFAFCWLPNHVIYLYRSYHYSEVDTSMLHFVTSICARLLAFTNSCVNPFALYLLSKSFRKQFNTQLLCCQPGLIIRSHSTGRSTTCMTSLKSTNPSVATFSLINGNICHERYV

[2] = in vivo
GRPR [3] = biological target: T1, GRPR; details: non-clinical models; cited from earlier work
Target sequence in this assay (P30550 whole entry, species assumed): as the sequence (P30550 whole entry) above

GRPR [4] = biological target: T1, GRPR; assay: lesion-level analysis, [68Ga]-NeoB PET versus conventional imaging; assay type: in vivo; design: from tissue; host or cells: tumour lesions in patients (breast, prostate, colorectal, NSCL, SCL cancer), in vivo
Protocol: PET/CT or PET/MRI imaging is performed after the compound 1 administration ideally at 2 h 30 min ±30 min.
The spleen is the reference region to assess pathological [68Ga]-NeoB uptake.
NeoB in patients with malignancies known to overexpress GRPR.
Target sequence in this assay (P30550 whole entry): as above

Question: What does the source list for `CC(C)CC(CC(C)C)NC(=O)[C@H](Cc1cnc[nH]1)NC(=O)CNC(=O)[C@@H](NC(=O)[C@H](C)NC(=O)[C@H](Cc1c[nH]c2ccccc12)NC(=O)[C@H](CCC(N)=O)NC(=O)[C@@H](Cc1ccccc1)NC(=O)COCC(=O)Nc1ccc(CNC(=O)CN2CCN(CC(=O)O)CCN(CC(=O)O)CCN(CC(=O)O)CC2)cc1)C(C)C` [[68Ga]-NeoB, metal not drawn]?
Answer: SUV at 2.5 h (clinical; overall (breast tumors), highest SUVmax, overall): 23.1 SUV; SUV at 1.5 h (clinical; overall locations (prostatic tumors), highest SUVmean, overall locations): 11.6 SUV; SUV at 2 h (clinical; soft tissue/visceral (breast cancer), highest SUVmax, dosimetry group, breast cancer N=2, soft tissue/visceral, 2 h): 25.8 SUV; SUV at 4 h (clinical; soft tissue/visceral (breast cancer), highest SUVmax, dosimetry group, breast cancer N=2, soft tissue/visceral): 26.4 SUV; SUV at 0.25 h (clinical; soft tissue/visceral (breast cancer), highest SUVmean, dosimetry group, breast cancer N=2, soft tissue/visceral, 15 minutes): 9.24 SUV; SUV at 4 h (clinical; soft tissue/visceral (breast cancer), highest SUVmean, dosimetry group, breast cancer N=2, soft tissue/visceral): 9.14 SUV; SUV at 2.5 h (clinical; soft tissue/visceral (breast tumors), highest SUVmax, soft tissue/visceral): 22.1 SUV; SUV at 1.5 h (clinical; soft tissue/visceral (prostatic tumors), highest SUVmean, soft tissue/visceral): 14 SUV; time at which SUVmax values in lesions peaked (GRPR [1]): 4 h; time at which SUVmean values in lesions peaked (GRPR [1]): 15 min; calculated human dose extrapolated from animal model [2]: 0.039 mSv/MBq; internalization upon binding to the specific receptor (GRPR [3]): low degree of internalization; Number of lesions (GRPR [4]; Breast N=5, [68Ga]-NeoB Negative, conventional imaging Positive): 44; Number of lesions (GRPR [4]; Breast N=5, [68Ga]-NeoB Negative, conventional imaging Total): 44; Number of lesions (GRPR [4]; Breast N=5, [68Ga]-NeoB Positive, conventional imaging Negative): 37; Number of lesions (GRPR [4]; Breast N=5, [68Ga]-NeoB Positive, conventional imaging Positive): 48; Number of lesions (GRPR [4]; Breast N=5, [68Ga]-NeoB Positive, conventional imaging Total): 85; Number of lesions (GRPR [4]; Breast N=5, [68Ga]-NeoB Total, conventional imaging Negative): 37; Number of lesions (GRPR [4]; Breast N=5, [68Ga]-NeoB Total, conventional imaging Positive): 92; Number of lesions (GRPR [4]; Breast N=5, [68Ga]-NeoB Total, conventional imaging Total): 129; lesions identified by conventional imaging also identified by [68Ga]-NeoB (GRPR [4]; Breast cancer N=5): 52.2%; Number of lesions (GRPR [4]; Colorectal N=5, [68Ga]-NeoB Negative, conventional imaging Positive): 43; Number of lesions (GRPR [4]; Colorectal N=5, [68Ga]-NeoB Negative, conventional imaging Total): 43; Number of lesions (GRPR [4]; Colorectal N=5, [68Ga]-NeoB Positive, conventional imaging Negative): 0; Number of lesions (GRPR [4]; Colorectal N=5, [68Ga]-NeoB Positive, conventional imaging Positive): 18; Number of lesions (GRPR [4]; Colorectal N=5, [68Ga]-NeoB Positive, conventional imaging Total): 18; Number of lesions (GRPR [4]; Colorectal N=5, [68Ga]-NeoB Total, conventional imaging Negative): 0; Number of lesions (GRPR [4]; Colorectal N=5, [68Ga]-NeoB Total, conventional imaging Positive): 61; Number of lesions (GRPR [4]; Colorectal N=5, [68Ga]-NeoB Total, conventional imaging Total): 61; lesions identified by conventional imaging also identified by [68Ga]-NeoB (GRPR [4]; Colorectal cancer N=5): 29.5%; Number of lesions (GRPR [4]; NSCL N=3, [68Ga]-NeoB Negative, conventional imaging Positive): 20; Number of lesions (GRPR [4]; NSCL N=3, [68Ga]-NeoB Negative, conventional imaging Total): 20; Number of lesions (GRPR [4]; NSCL N=3, [68Ga]-NeoB Positive, conventional imaging Negative): 0; Number of lesions (GRPR [4]; NSCL N=3, [68Ga]-NeoB Positive, conventional imaging Positive): 10; Number of lesions (GRPR [4]; NSCL N=3, [68Ga]-NeoB Positive, conventional imaging Total): 10; Number of lesions (GRPR [4]; NSCL N=3, [68Ga]-NeoB Total, conventional imaging Negative): 0; Number of lesions (GRPR [4]; NSCL N=3, [68Ga]-NeoB Total, conventional imaging Positive): 30; Number of lesions (GRPR [4]; NSCL N=3, [68Ga]-NeoB Total, conventional imaging Total): 30; lesions identified by conventional imaging also identified by [68Ga]-NeoB (GRPR [4]; NSCL cancer N=3): 33.3%; Number of lesions (GRPR [4]; Prostate N=5, [68Ga]-NeoB Negative, conventional imaging Positive): 59; Number of lesions (GRPR [4]; Prostate N=5, [68Ga]-NeoB Negative, conventional imaging Total): 59; Number of lesions (GRPR [4]; Prostate N=5, [68Ga]-NeoB Positive, conventional imaging Negative): 1; Number of lesions (GRPR [4]; Prostate N=5, [68Ga]-NeoB Positive, conventional imaging Positive): 10; Number of lesions (GRPR [4]; Prostate N=5, [68Ga]-NeoB Positive, conventional imaging Total): 11; Number of lesions (GRPR [4]; Prostate N=5, [68Ga]-NeoB Total, conventional imaging Negative): 1; Number of lesions (GRPR [4]; Prostate N=5, [68Ga]-NeoB Total, conventional imaging Positive): 69; Number of lesions (GRPR [4]; Prostate N=5, [68Ga]-NeoB Total, conventional imaging Total): 70; lesions identified by conventional imaging also identified by [68Ga]-NeoB (GRPR [4]; Prostate cancer N=5): 14.5%; Number of lesions (GRPR [4]; SCL N=1, [68Ga]-NeoB Negative, conventional imaging Positive): 1; Number of lesions (GRPR [4]; SCL N=1, [68Ga]-NeoB Negative, conventional imaging Total): 1; Number of lesions (GRPR [4]; SCL N=1, [68Ga]-NeoB Positive, conventional imaging Negative): 0; Number of lesions (GRPR [4]; SCL N=1, [68Ga]-NeoB Positive, conventional imaging Positive): 1; Number of lesions (GRPR [4]; SCL N=1, [68Ga]-NeoB Positive, conventional imaging Total): 1; Number of lesions (GRPR [4]; SCL N=1, [68Ga]-NeoB Total, conventional imaging Negative): 0; Number of lesions (GRPR [4]; SCL N=1, [68Ga]-NeoB Total, conventional imaging Positive): 2; Number of lesions (GRPR [4]; SCL N=1, [68Ga]-NeoB Total, conventional imaging Total): 2; lesions identified by conventional imaging also identified by [68Ga]-NeoB (GRPR [4]; SCL cancer N=1): 50%; Number of lesions (GRPR [4]; overall cancer N=19, Nodal, [68Ga]-NeoB Negative, conventional imaging Positive): 36; Number of lesions (GRPR [4]; overall cancer N=19, Nodal, [68Ga]-NeoB Negative, conventional imaging Total): 36; Number of lesions (GRPR [4]; overall cancer N=19, Nodal, [68Ga]-NeoB Positive, conventional imaging Negative): 1; Number of lesions (GRPR [4]; overall cancer N=19, Nodal, [68Ga]-NeoB Positive, conventional imaging Positive): 18; Number of lesions (GRPR [4]; overall cancer N=19, Nodal, [68Ga]-NeoB Positive, conventional imaging Total): 19; Number of lesions (GRPR [4]; overall cancer N=19, Nodal, [68Ga]-NeoB Total, conventional imaging Negative): 1; Number of lesions (GRPR [4]; overall cancer N=19, Nodal, [68Ga]-NeoB Total, conventional imaging Positive): 54; Number of lesions (GRPR [4]; overall cancer N=19, Nodal, [68Ga]-NeoB Total, conventional imaging Total): 55; Number of lesions (GRPR [4]; overall cancer N=19, Overall, [68Ga]-NeoB Negative, conventional imaging Positive): 167; Number of lesions (GRPR [4]; overall cancer N=19, Overall, [68Ga]-NeoB Negative, conventional imaging Total): 167; Number of lesions (GRPR [4]; overall cancer N=19, Overall, [68Ga]-NeoB Positive, conventional imaging Negative): 38; Number of lesions (GRPR [4]; overall cancer N=19, Overall, [68Ga]-NeoB Positive, conventional imaging Positive): 87; Number of lesions (GRPR [4]; overall cancer N=19, Overall, [68Ga]-NeoB Positive, conventional imaging Total): 125; Number of lesions (GRPR [4]; overall cancer N=19, Overall, [68Ga]-NeoB Total, conventional imaging Negative): 38; Number of lesions (GRPR [4]; overall cancer N=19, Overall, [68Ga]-NeoB Total, conventional imaging Positive): 254; Number of lesions (GRPR [4]; overall cancer N=19, Overall, [68Ga]-NeoB Total, conventional imaging Total): 292; Number of lesions (GRPR [4]; overall cancer N=19, Skeletal, [68Ga]-NeoB Negative, conventional imaging Positive): 85; Number of lesions (GRPR [4]; overall cancer N=19, Skeletal, [68Ga]-NeoB Negative, conventional imaging Total): 85; Number of lesions (GRPR [4]; overall cancer N=19, Skeletal, [68Ga]-NeoB Positive, conventional imaging Negative): 12; Number of lesions (GRPR [4]; overall cancer N=19, Skeletal, [68Ga]-NeoB Positive, conventional imaging Positive): 17; Number of lesions (GRPR [4]; overall cancer N=19, Skeletal, [68Ga]-NeoB Positive, conventional imaging Total): 29; Number of lesions (GRPR [4]; overall cancer N=19, Skeletal, [68Ga]-NeoB Total, conventional imaging Negative): 12; Number of lesions (GRPR [4]; overall cancer N=19, Skeletal, [68Ga]-NeoB Total, conventional imaging Positive): 102; Number of lesions (GRPR [4]; overall cancer N=19, Skeletal, [68Ga]-NeoB Total, conventional imaging Total): 114; Number of lesions (GRPR [4]; overall cancer N=19, Skin/Superficial, [68Ga]-NeoB Negative, conventional imaging Positive): 1; Number of lesions (GRPR [4]; overall cancer N=19, Skin/Superficial, [68Ga]-NeoB Negative, conventional imaging Total): 1; Number of lesions (GRPR [4]; overall cancer N=19, Skin/Superficial, [68Ga]-NeoB Positive, conventional imaging Negative): 0; Number of lesions (GRPR [4]; overall cancer N=19, Skin/Superficial, [68Ga]-NeoB Positive, conventional imaging Positive): 2; Number of lesions (GRPR [4]; overall cancer N=19, Skin/Superficial, [68Ga]-NeoB Positive, conventional imaging Total): 2; Number of lesions (GRPR [4]; overall cancer N=19, Skin/Superficial, [68Ga]-NeoB Total, conventional imaging Negative): 0; Number of lesions (GRPR [4]; overall cancer N=19, Skin/Superficial, [68Ga]-NeoB Total, conventional imaging Positive): 3; Number of lesions (GRPR [4]; overall cancer N=19, Skin/Superficial, [68Ga]-NeoB Total, conventional imaging Total): 3; Number of lesions (GRPR [4]; overall cancer N=19, Soft Tissus/Visceral, [68Ga]-NeoB Negative, conventional imaging Positive): 45; Number of lesions (GRPR [4]; overall cancer N=19, Soft Tissus/Visceral, [68Ga]-NeoB Negative, conventional imaging Total): 45; Number of lesions (GRPR [4]; overall cancer N=19, Soft Tissus/Visceral, [68Ga]-NeoB Positive, conventional imaging Negative): 25; Number of lesions (GRPR [4]; overall cancer N=19, Soft Tissus/Visceral, [68Ga]-NeoB Positive, conventional imaging Positive): 50; Number of lesions (GRPR [4]; overall cancer N=19, Soft Tissus/Visceral, [68Ga]-NeoB Positive, conventional imaging Total): 75; Number of lesions (GRPR [4]; overall cancer N=19, Soft Tissus/Visceral, [68Ga]-NeoB Total, conventional imaging Negative): 25; Number of lesions (GRPR [4]; overall cancer N=19, Soft Tissus/Visceral, [68Ga]-NeoB Total, conventional imaging Positive): 95; Number of lesions (GRPR [4]; overall cancer N=19, Soft Tissus/Visceral, [68Ga]-NeoB Total, conventional imaging Total): 120; lesions identified by conventional imaging also identified by [68Ga]-NeoB (GRPR [4]; regardless the cancer type, N=19): 34.3%; lesions identified by conventional imaging also identified by [68Ga]-NeoB (GRPR [4]; soft tissue and visceral tissue regardless the cancer type): 52.6%
